Earlier results on 1 substance are cited in patent US20060159689A1, “Combinations of tumor-associated antigens in diagnostics for various types of cancers” (priority 2004, published 2006).

The test system of this data set is VEGF-A. Conditions: colorectal, lung, breast, ovarian carcinoma and other cancers.
Sequence of VEGF-A (P15692 207-311 limits assumed): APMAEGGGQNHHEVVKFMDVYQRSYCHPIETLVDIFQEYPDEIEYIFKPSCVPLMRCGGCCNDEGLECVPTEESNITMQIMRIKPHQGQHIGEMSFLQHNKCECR

bevacizumab: the “effect on tumor progression and metastatic disease” value was “control of tumor progression and metastatic disease”.
